For 34 molecules, Ki results are on record in patent US9260425B2 (Genetech, Inc., priority 2011, dated 2016).

For this test, the target named is Pim-1 (Homo sapiens (Human), UniProt P11309). Briefly: Pim kinase binding activity assay (Example 901), PIM-1 enzyme, Caliper microfluidic peptide phosphorylation. In kind it is biochemical. Particulars: 20 pM PIM-1, 10 μM ATP, 1 μM FAM-peptide, 90 minutes at room temperature. The method, then:
Pim Kinase Binding Activity
A fluorescent-labeled Pim-specific peptide substrate, was custom synthesized by American Peptide Company (Sunnyvale, Calif.). Reaction Buffer contained 10 mM HEPES, pH 7.2, 10 mM MgCl2, 0.01% Tween 20, 2 mM DTT. Termination Buffer contained 190 mM HEPES, pH 7.2, 0.015% Brij-35, 0.2% Coating Reagent 3 (Caliper Life Sciences, Hopkinton, Mass.), 20 mM EDTA. Separation Buffer contained 100 mM HEPES, pH 7.2, 0.015% Brij-35, 0.1% Coating Reagent 3, 1:200 Coating Reagent 8 (Caliper Life Sciences, Hopkinton, Mass.), 10 mM EDTA and 5% DMSO.
PIM reactions were carried out in a final volume of 10 μL per well in a 384-well plate. A standard enzymatic reaction, initiated by the addition of 5 μL 2×ATP and test compound to 5 μL of 2× enzyme and FAM-peptide, contained 20 pM PIM-1, 50 pM PIM-2, or 55 pM PIM-3, 1 μM FAM-peptide, and 10 μM ATP, in Reaction Buffer. After 90 minutes of incubation at room temperature, the phosphorylation reaction was stopped by the addition of 10 μL Termination Buffer. The product and substrate in each independent reaction were separated on a 12-sipper microfluidic chip (Caliper Life Sciences, Hopkinton, Mass.) run on a Caliper LC3000® (Caliper Life Sciences, Hopkinton, Mass.). The separation of product and substrate was optimized by choosing voltages and pressure using Caliper's Optimizer software (Hopkinton, Mass.). […] The product and substrate fluorophore were excited at 488 nm and detected at 530 nm. Substrate conversion was calculated from the electropherogram using HTS Well Analyzer software (Caliper Life Sciences, Hopkinton, Mass.). Ki values for the test compound were calculated.

Sequence of Pim-1 (P11309 whole entry): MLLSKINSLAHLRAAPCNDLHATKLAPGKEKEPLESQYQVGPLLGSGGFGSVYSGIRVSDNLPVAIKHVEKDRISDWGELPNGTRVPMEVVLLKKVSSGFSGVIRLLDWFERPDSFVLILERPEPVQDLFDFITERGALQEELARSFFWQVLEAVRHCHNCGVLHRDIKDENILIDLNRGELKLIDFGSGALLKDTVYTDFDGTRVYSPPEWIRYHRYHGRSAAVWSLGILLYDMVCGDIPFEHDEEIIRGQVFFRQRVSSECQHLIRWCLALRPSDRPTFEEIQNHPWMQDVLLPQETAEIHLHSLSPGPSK

What is called Ki is a measure of affinity in units of concentration, obtained from inhibition or displacement. Read a low Ki as higher affinity. `N[C@H]1CCCN(c2cncc(-c3cc4c(-c5ccccc5F)n[nH]c4cn3)c2)C1` [Example 180, (S)-1-(5-(3-(2-fluorophenyl)-1H-pyrazolo[3,4-c]pyridin-5-yl)pyridin-3-yl)piperidin-3-amine] registered an inhibition constant Ki of 0.264 nM. In other words, the sub-nanomolar range.

Molecule `c1cc(-c2n[nH]c3cnc(C4CCCOC4)cc23)nc(N2CCNCC2)c1` (stereo not shown) [Example 181, 3-(6-(piperazin-1-yl)pyridin-2-yl)-5-(tetrahydro-2H-pyran-3-yl)-1H-pyrazolo[3,4-c]pyridine] yielded a Ki of 3.96 nM. Against the preceding molecule, the Ki is about 15-fold higher.

With `Cn1cc(-c2cc3c(-c4cccc(N5CCC(CN)CC5)n4)n[nH]c3cn2)cn1` [Example 182, (1-(6-(5-(1-methyl-1H-pyrazol-4-yl)-1H-pyrazolo[3,4-c]pyridin-3-yl)pyridin-2-yl)piperidin-4-yl)methanamine], the Ki is 0.085 nM.

`Cn1cc(-c2cc3c(-c4cccc(NCC5CCNCC5)n4)n[nH]c3cn2)cn1` [Example 183, 6-(5-(1-methyl-1H-pyrazol-4-yl)-1H-pyrazolo[3,4-c]pyridin-3-yl)-N-(piperidin-4-ylmethyl)pyridin-2-amine]: the Ki amounted to 0.426 nM. This Ki is about 5-fold higher than that of the molecule before.

`Cn1cc(-c2cc3c(-c4cccc(-c5cnn(C)c5)n4)n[nH]c3cn2)cn1` [Example 184, 5-(1-methyl-1H-pyrazol-4-yl)-3-(6-(1-methyl-1H-pyrazol-4-yl)pyridin-2-yl)-1H-pyrazolo[3,4-c]pyridine] gave a Ki of 0.502 nM.

`c1ccc(-c2n[nH]c3cnc(-c4ccoc4)cc23)cc1` [Example 185, 5-(furan-3-yl)-3-phenyl-1H-pyrazolo[3,4-c]pyridine] returned a Ki of 70.9 nM.

For the molecule `c1cncc(-c2cc3c(-c4cnn(CC5CCNCC5)c4)n[nH]c3cn2)c1` [Example 186, 3-(1-(piperidin-4-ylmethyl)-1H-pyrazol-4-yl)-5-(pyridin-3-yl)-1H-pyrazolo[3,4-c]pyridine], the affinity corresponds to a Ki of 0.717 nM.

Take `c1cncc(-c2cc3c(-c4cccc(N5CCCNCC5)n4)n[nH]c3cn2)c1` [Example 187, 3-(6-(1,4-diazepan-1-yl)pyridin-2-yl)-5-(pyridin-3-yl)-1H-pyrazolo[3,4-c]pyridine]: the inhibition constant (Ki) is 0.015 nM.

As for `Cn1cc(-c2cc3c(-c4cccc(N5CC[C@@H](N)C5)n4)n[nH]c3cn2)cn1` [Example 189, (R)-1-(6-(5-(1-methyl-1H-pyrazol-4-yl)-1H-pyrazolo[3,4-c]pyridin-3-yl)pyridin-2-yl)pyrrolidin-3-amine], the affinity corresponds to a Ki of 0.136 nM.

In turn, `N[C@@H]1CCCN(c2ccc(-c3n[nH]c4cnc(-c5cccnc5)cc34)cn2)C1` [Example 191, (R)-1-(5-(5-(pyridin-3-yl)-1H-pyrazolo[3,4-c]pyridin-3-yl)pyridin-2-yl)piperidin-3-amine] returned an inhibitory constant (Ki) of 0.404 nM.

Turning to `N[C@@H]1CCN(c2cncc(-c3cc4c(-c5ccccc5F)n[nH]c4cn3)c2)C1` [Example 192, (R)-1-(5-(3-(2-fluorophenyl)-1H-pyrazolo[3,4-c]pyridin-5-yl)pyridin-3-yl)pyrrolidin-3-amine], the affinity corresponds to a Ki of 0.511 nM. The Ki values of the last two molecules are within 1.5-fold of each other.

Regarding `c1cncc(-c2cc3c(-c4cc[nH]n4)n[nH]c3cn2)c1` [Example 193, 3-(1H-pyrazol-3-yl)-5-(pyridin-3-yl)-1H-pyrazolo[3,4-c]pyridine], the affinity corresponds to a Ki of 2.63 nM.

On to `c1cncc(-c2cc3c(-c4ccncc4)n[nH]c3cn2)c1` [Example 194, 5-(pyridin-3-yl)-3-(pyridin-4-yl)-1H-pyrazolo[3,4-c]pyridine], for which the inhibition constant Ki was found to be 8.77 nM.

For `Fc1ccccc1-c1n[nH]c2cnc(-c3cnccc3OC3CCNCC3)cc12` [Example 195, 3-(2-fluorophenyl)-5-(4-(piperidin-4-yloxy)pyridin-3-yl)-1H-pyrazolo[3,4-c]pyridine], the inhibition constant (Ki) was determined as 0.567 nM. This Ki lies about 15-fold lower than the previous one.

The molecule `N[C@H]1CCCN(c2ccc(-c3n[nH]c4cnc(-c5cccnc5)cc34)cn2)C1` [Example 196, (S)-1-(5-(5-(pyridin-3-yl)-1H-pyrazolo[3,4-c]pyridin-3-yl)pyridin-2-yl)piperidin-3-amine] returned a Ki of 0.774 nM.

In turn, `NC1CCCN(c2cccc(-c3n[nH]c4cnc(-c5cccnc5)cc34)n2)CC1` (stereo not shown) [Example 197, 1-(6-(5-(pyridin-3-yl)-1H-pyrazolo[3,4-c]pyridin-3-yl)pyridin-2-yl)azepan-4-amine] registered an inhibition constant Ki of 0.038 nM.

Molecule `Fc1ccccc1-c1n[nH]c2cnc(-c3cnccc3OC3CNC3)cc12` [Example 198, 5-(4-(azetidin-3-yloxy)pyridin-3-yl)-3-(2-fluorophenyl)-1H-pyrazolo[3,4-c]pyridine] returned a Ki of 3.12 nM.

On to `Cn1cc(-c2cc3c(-c4cccc(NC5CCNCC5)n4)n[nH]c3cn2)cn1` [Example 200, 6-(5-(1-methyl-1H-pyrazol-4-yl)-1H-pyrazolo[3,4-c]pyridin-3-yl)-N-(piperidin-4-yl)pyridin-2-amine], for which the inhibition constant Ki was 0.092 nM.

Molecule `N[C@H]1CCN(c2ccc(-c3n[nH]c4cnc(-c5cccnc5)cc34)cn2)C1` [Example 202, (S)-1-(5-(5-(pyridin-3-yl)-1H-pyrazolo[3,4-c]pyridin-3-yl)pyridin-2-yl)pyrrolidin-3-amine] registered an inhibitory constant (Ki) of 1 nM.

As to `N[C@@H]1CCN(c2ccc(-c3n[nH]c4cnc(-c5cccnc5)cc34)cn2)C1` [Example 203, (R)-1-(5-(5-(pyridin-3-yl)-1H-pyrazolo[3,4-c]pyridin-3-yl)pyridin-2-yl)pyrrolidin-3-amine], the Ki worked out at 1.02 nM.

The molecule `c1ccc(-c2n[nH]c3cnc(-c4cccnc4)cc23)nc1` [Example 204, 3-(pyridin-2-yl)-5-(pyridin-3-yl)-1H-pyrazolo[3,4-c]pyridine] had a Ki of 11.6 nM. Compared with the last molecule, the Ki is about 11-fold higher.

Molecule `Cc1ccc(F)c(-c2n[nH]c3cnc(-c4cnn(C)c4)cc23)c1` [Example 205, 3-(2-fluoro-5-methylphenyl)-5-(1-methyl-1H-pyrazol-4-yl)-1H-pyrazolo[3,4-c]pyridine] registered an inhibitory constant (Ki) of 6.08 nM.

For the molecule `Fc1cncc(-c2cc3c(-c4cccc(N5CCNCC5)n4)n[nH]c3cn2)c1` [Example 208, 5-(5-fluoropyridin-3-yl)-3-(6-(piperazin-1-yl)pyridin-2-yl)-1H-pyrazolo[3,4-c]pyridine], the Ki worked out at 0.284 nM.

`Fc1ccccc1-c1n[nH]c2cnc(-c3cnccc3OC[C@@H]3CCNC3)cc12` [Example 209, (R)-3-(2-fluorophenyl)-5-(4-(pyrrolidin-3-ylmethoxy)pyridin-3-yl)-1H-pyrazolo[3,4-c]pyridine] displayed a Ki of 0.189 nM. Against the preceding molecule, the Ki is about 1.5-fold lower.

As to `Fc1ccccc1-c1n[nH]c2cnc(-c3cnccc3OC[C@H]3CCNC3)cc12` [Example 211, (S)-3-(2-fluorophenyl)-5-(4-(pyrrolidin-3-ylmethoxy)pyridin-3-yl)-1H-pyrazolo[3,4-c]pyridine], the Ki came to 1.28 nM.

`c1cc(-c2n[nH]c3cnc(C4CCOC4)cc23)nc(N2CCNCC2)c1` (stereo not shown) [Example 212, 3-(6-(piperazin-1-yl)pyridin-2-yl)-5-(tetrahydrofuran-3-yl)-1H-pyrazolo[3,4-c]pyridine] registered a Ki of 8.48 nM.

Take `c1ccc(-c2n[nH]c3cnc(-c4cnccn4)cc23)cc1` [Example 214, 3-phenyl-5-(pyrazin-2-yl)-1H-pyrazolo[3,4-c]pyridine]: the affinity corresponds to a Ki of 41.6 nM.

`c1cncc(-c2cc3c(-c4ccn(C5CCNCC5)n4)n[nH]c3cn2)c1` [Example 215, 3-(1-(piperidin-4-yl)-1H-pyrazol-3-yl)-5-(pyridin-3-yl)-1H-pyrazolo[3,4-c]pyridine] showed a Ki of 0.313 nM.

In turn, `Cn1cc(-c2cc3c(-c4cccc(N5C[C@@H]6C[C@H]5CN6)n4)n[nH]c3cn2)cn1` [Example 216, 3-(6-((1S,4S)-2,5-diazabicyclo[2.2.1]heptan-2-yl)pyridin-2-yl)-5-(1-methyl-1H-pyrazol-4-yl)-1H-pyrazolo[3,4-c]pyridine] yielded a Ki of 0.126 nM.

`Fc1ccccc1-c1n[nH]c2cnc(-c3cnc[nH]3)cc12` [Example 218, 3-(2-fluorophenyl)-5-(1H-imidazol-5-yl)-1H-pyrazolo[3,4-c]pyridine] gave a Ki of 30.9 nM.

Turning to `Fc1ccccc1-c1n[nH]c2cnc(-c3cnccn3)cc12` [Example 219, 3-(2-fluorophenyl)-5-(pyrazin-2-yl)-1H-pyrazolo[3,4-c]pyridine], the Ki was found to be 33.5 nM.

For the molecule `Fc1ccccc1-c1n[nH]c2cnc(-c3cnccc3OCCC3CCNCC3)cc12` [Example 220, 3-(2-fluorophenyl)-5-(4-(2-(piperidin-4-yl)ethoxy)pyridin-3-yl)-1H-pyrazolo[3,4-c]pyridine], affinity was put at a Ki of 0.379 nM.

In the case of `Cn1cc(-c2n[nH]c3cnc(-c4cncc(N5CCC(N)CC5)n4)cc23)cn1` [Example 221, 1-(6-(3-(1-methyl-1H-pyrazol-4-yl)-1H-pyrazolo[3,4-c]pyridin-5-yl)pyrazin-2-yl)piperidin-4-amine], the Ki was 0.096 nM.

Regarding `Cn1cc(-c2cc3c(-c4cccc(N5CCC[C@@H](N)C5)c4)n[nH]c3cn2)cn1` [Example 222, (R)-1-(3-(5-(1-methyl-1H-pyrazol-4-yl)-1H-pyrazolo[3,4-c]pyridin-3-yl)phenyl)piperidin-3-amine], the inhibitory constant (Ki) is 0.387 nM. This Ki is about 4-fold higher than that of the molecule before.
